Drawing on patent US10889812B2, “Short non-coding protein regulatory RNAs (sprRNAs) and methods of use” (University of Maryland, Baltimore, priority 2014, dated 2021), this text covers piR-L-138 levels, piR-L-138 expression and IC50 for one compound.

The structures appear in SMILES notation.

For assay [1], the system named is piR-L-138. The experiment in a line: piR-L-138 expression by real-time RT-PCR after chemotherapeutic agent, SCC cell lines. The assay is classed as cell-based, human. To be noted: all SCC cell lines, 24 h after treatment. From the text: (§1) To determine if piRNA-Ls play a role in chemo-sensitivity, we first selected 11 piRNA-Ls differentially expressed between NSCLC and HBE cells (Mei Y, Wang Y, Kumari P, et al. A piRNA-like small RNA interacts with and modulates p-ERM proteins in human somatic cells. Nat Commun 6, 7316. doi: 10.1038/ncomms8316 (2015)) and analyzed the relationship between the expression levels and the sensitivities to chemotherapeutic agents commonly used clinically for patients with NSCLC. We established doses of 50% inhibitory concentration (IC50) for CDDP, gemcitabine, and docetaxel in 4 SCC and 4 ADC cell lines based on 3-(4,5-dimethylthiazol-2-yl)-2,5-diphenyltetrazolium bromide (MTT) assay (Table 4). We then measured expression levels of the 11 selected piRNA-Ls using real-time RT-PCR before and 24 h after treatment with both IC50 (H) and IC25 (L) doses for each of the agents. […] Impact of gemcitabine and docetaxel in piR-L-138 expression was also determined in these NSCLC cell lines (FIG. 19). As CDDP is the backbone agent to treat patients with NSCLC, we selected CDDP as the representative agent to further determine the role of piR-L-138 in SCC cells' response to chemotherapy.

Assay [2] has as its system piR-L-138. The experiment in a line: piR-L-138 expression by real-time RT-PCR after chemotherapeutic agent, ADC cell lines. The assay is classed as cell-based, human. The following applies: 24 h after treatment.
Excerpt: as §1

For another assay, the system named is SKMES-1. The experiment in a line: MTT assay, IC50 of CDDP in NSCLC cell lines. The assay is classed as cell-based, Human. To be noted: SKMES-1, MTT assay. As to the method:
(§2) Cell viability and cell growth curve assay were determined by MTT assay and trypan blue exclusion assay, respectively as described previously (Kirino, Y. & Mourelatos, Z. Mouse Piwi-interacting RNAs are 2′-O-methylated at their 3′ termini Nat Struct Mol Biol. 14, 347-348 (2007)). BrieflySpecifically, MTT (5 mg/ml) was added into cells and incubated at culture condition for 3 hours, removed the medium carefully and dissolved formazan in DMSO, assay was used to assess the surviving cells and OD values were measured using Microplate Reader Manager (Bio Rad) at wavelengths of 570/690 nm. For trypan blue exclusion assay, cells were washed in PBS for three times, and dyed in 0.4% tyrpan blue solution. Unstained viable cells were counted in hemocytometer chamber under microscope. Each experiment was performed three times independently.
as §1
(Tetrazolium dyes change colour on reduction, which living cells bring about.)

The subject of the next assay is H1944. The experiment in a line: MTT assay, IC50 of CDDP in NSCLC cell lines. Format: cell-based, Human. The procedure:
as §2, §1

The next assay has as its system H157. The experiment in a line: MTT assay, IC50 of CDDP in NSCLC cell lines. Format: cell-based, Human. The procedure: as §2, §1
The subject of a further assay is H522. The experiment in a line: MTT assay, IC50 of CDDP in NSCLC cell lines. The assay is classed as cell-based, Human. As to the method: as §2, §1
In the next assay the test system is H1437. The experiment in a line: MTT assay, IC50 of CDDP in NSCLC cell lines. The assay is classed as cell-based, Human. As to the method: as §2, §1
Another assay relates to H226. The experiment in a line: MTT assay, IC50 of CDDP in NSCLC cell lines. The assay is classed as cell-based, Human. The procedure:
as §2, §1

The next assay has as its system H596. The experiment in a line: MTT assay, IC50 of CDDP in NSCLC cell lines. The assay is classed as cell-based, Human. As to the method:
as §2, §1

The subject of a further assay is H1792. The experiment in a line: MTT assay, IC50 of CDDP in NSCLC cell lines. Format: cell-based, Human. As to the method:
as §2, §1

A word on the IC50: it is the concentration that gives 50% inhibition. Read a low IC50 as greater potency. Consider `[NH2][Pt]([NH2])([Cl])[Cl]` [CDDP, cisplatin], for which, in the assay with piR-L-138 [1], the piR-L-138 levels result was “consistent and substantial increase of piR-L-138 levels”. Moreover, the piR-L-138 expression entry in the assay on piR-L-138 [2] is “no or much smaller increase of piR-L-138 expression”. The 50% inhibitory concentration (IC50) with SKMES-1 was determined as 10 µM; with H1944, 100 µM; in the assay with H157 it was 80 µM; with H522 it was 45 µM; with H1437, 50 µM; in the assay on H226, 40 µM. For the same compound, the IC50 worked out at 30 µM in the assay on H596 and 50 µM in the assay on H1792.
